Data published in US20220363665A1, “QUINOLINE COMPOUNDS FOR THE TREATMENT OF AUTOIMMUNE DISEASE” (Hoffmann-La Roche Inc., priority 2019, published 2022).

target: T1, human TLR8 (Homo sapiens, UniProt Q9NR97); test: HEK293-Blue-hTLR-8 cells assay (SEAP reporter, R848 stimulation); type: cell-based; settings: HEK293-Blue-hTLR8 cells, R848, 20 hrs
T1 construct: host or cells: HEK293 (HEK-Blue hTLR8)
T1 sequence (Q9NR97 27-1041): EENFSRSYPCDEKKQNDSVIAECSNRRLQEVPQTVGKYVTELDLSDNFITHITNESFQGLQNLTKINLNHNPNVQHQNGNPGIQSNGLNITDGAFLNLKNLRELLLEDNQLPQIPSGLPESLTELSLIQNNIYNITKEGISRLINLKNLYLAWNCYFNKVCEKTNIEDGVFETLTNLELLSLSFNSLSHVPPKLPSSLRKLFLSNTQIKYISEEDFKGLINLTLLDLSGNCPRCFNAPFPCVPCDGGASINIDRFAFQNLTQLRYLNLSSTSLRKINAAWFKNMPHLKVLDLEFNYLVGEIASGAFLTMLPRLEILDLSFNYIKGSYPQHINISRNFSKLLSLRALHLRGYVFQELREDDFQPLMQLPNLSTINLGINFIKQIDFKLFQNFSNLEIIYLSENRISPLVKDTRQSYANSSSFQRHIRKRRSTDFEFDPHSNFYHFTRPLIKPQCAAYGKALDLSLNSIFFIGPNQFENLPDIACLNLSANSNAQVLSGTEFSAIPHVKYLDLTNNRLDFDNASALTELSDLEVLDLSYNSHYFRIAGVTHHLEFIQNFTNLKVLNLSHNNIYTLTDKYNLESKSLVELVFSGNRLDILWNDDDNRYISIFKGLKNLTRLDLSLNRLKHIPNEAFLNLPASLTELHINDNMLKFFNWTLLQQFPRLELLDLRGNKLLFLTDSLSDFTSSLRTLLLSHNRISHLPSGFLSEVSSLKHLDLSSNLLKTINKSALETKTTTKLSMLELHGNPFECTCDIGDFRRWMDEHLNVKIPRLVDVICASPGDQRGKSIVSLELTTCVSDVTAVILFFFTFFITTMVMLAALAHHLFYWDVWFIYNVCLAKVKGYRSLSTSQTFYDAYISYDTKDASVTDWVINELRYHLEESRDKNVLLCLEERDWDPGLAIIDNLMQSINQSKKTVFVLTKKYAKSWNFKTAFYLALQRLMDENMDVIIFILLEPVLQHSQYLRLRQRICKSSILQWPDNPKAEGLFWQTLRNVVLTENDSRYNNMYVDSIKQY
Experimental: The following tests were carried out in order to determine the activity of the compounds of formula (I) in HEK293-Blue-hTLR-7/8/9 cells assay.
HEK293-Blue-hTLR-8 Cells Assay:
A stable HEK293-Blue-hTLR-8 cell line was purchased from InvivoGen (Cat. #: hkb-htlr8, San Diego, Calif., USA). These cells were originally designed for studying the stimulation of human TLR8 by monitoring the activation of NF-κB. A SEAP (secreted embryonic alkaline phosphatase) reporter gene was placed under the control of the IFN-β minimal promoter fused to five NF-κB and AP-1-binding sites. The SEAP was induced by activating NF-κB and AP-1 via stimulating HEK-Blue hTLR8 cells with TLR8 ligands. Therefore the reporter expression was declined by TLR8 antagonist under the stimulation of a ligand, such as R848, for incubation of 20 hrs. The cell culture supernatant SEAP reporter activity was determined using QUANTI-Blue™ kit (Cat #. rep-qbl, Invivogen, San Diego, Calif., USA) at a wavelength of 640 nm, a detection medium that turns purple or blue in the presence of alkaline phosphatase.
HEK293-Blue-hTLR8 cells were incubated at a density of 250,000˜450,000 cells/mL in a volume of 170 μL in a 96-well plate in Dulbecco's Modified Eagle's medium (DMEM) containing 4.5 g/L glucose, 50 U/mL penicillin, […], […], 2 mM L-glutamine, 10% (v/v) heat-inactivated fetal bovine serum with addition of 20 μL test compound in a serial dilution in the presence of final DMSO at 1% and 10 μL of 60 μM R848 in above DMEM, perform incubation under 37° C. in a CO2 incubator for 20 hrs. Then 20 μL of the supernatant from each well was incubated with 180 μL Quanti-blue substrate solution at 37° C. for 2 hrs and the absorbance was read at 620˜655 nm using a spectrophotometer. The signalling pathway that TLR8 activation leads to downstream NF-KB activation has been widely accepted, and therefore similar reporter assay was modified for evaluating TLR8 antagonist.

IC50 [nM]	Compound
9	Cc1ccc(N2C[C@@H](C)O[C@@H](C(=O)N[C@@H]3CNC[C@@H]3F)C2)c2cccnc12 [Example 21, cis-(2R,6R)-N-14-fluoropyrrolidin-3-yl1-6-methyl-4-(8-methyl-5-quinolyl)morpholine-2carboxamide]
19	C[C@@H]1CN(c2ccc(Cl)c3ncccc23)C[C@H](C(=O)N[C@H]2CNC[C@H]2F)O1 [Example 22, (2R,6R)-4-(8-chloro-5-quinolyl)-N-[(3S,4R)-4-fluoropyrrolidin-3-yl]-6-methyl-morpholine-2-carboxamide]
4	C[C@H]1C[C@@H](N)CN(c2ccc(Cl)c3ncccc23)C1 [Example 23, (3R,5S)-1-(8-chloro-5-quinolyl)-5-methyl-piperidin-3-amine]
< 3	C[C@@H]1CN(c2ccc(Cl)c3ncccc23)C[C@H](C(=O)NC2CCN(C)CC2)O1 [Example 24, (2R,6R)-4-(8-chloro-5-quinolyI)-6-methyl-N-(1-methyl-4-piperidyl)morpholine-2-carboxamide]
< 3	C[C@@H]1CN(c2ccc(Cl)c3ncccc23)C[C@H](C(=O)NC2CCCNCC2)O1 (stereo partly drawn) [Example 25, (2R,6R)-N-(azepan-4-yl)-4-(8-chloro-5-quinolyl)-6-methyl-morpholine-2-carboxamide]
< 3	C[C@@H]1CN(c2ccc(Cl)c3ncccc23)C[C@H](C(=O)NCC2CN(C)CCO2)O1 (stereo partly drawn) [Example 26, (2R,6R)-4-(8-chloro-5-quinolyl)-6-methyl-N-[(4-methylmorpholin-2-yl)methyl]morpholine-2-carboxamide]
21	C[C@@H]1CN(c2ccc(C(F)(F)F)c3ncccc23)C[C@H](C(=O)NC[C@@H]2C[C@@H](F)CN2)O1 [Example 27, (2R,6R)-N-[[(2S,4R)-4-fluoropyrrolidin-2-yl]methyl]-6-methyl-4-[8-(trifluoromethyl)-5-quinolyl]morpholine-2-carboxamide]
86	C[C@@H]1CN(c2ccc(C(F)(F)F)c3ncccc23)C[C@H](C(=O)NC2CNCC(F)(F)C2)O1 (stereo partly drawn) [Example 28, (2R,6R)-N-(5,5-difluoro-3-piperidyl)-6-methyl-4-[8-(trifluoromethyl)-5-quinolyl]morpholine-2-carboxamide]
14	C[C@@H]1CN(c2ccc(C(F)(F)F)c3ncccc23)C[C@H](C(=O)NCC2CNCC2(F)F)O1 (stereo partly drawn) [Example 29, (2R,6R)-N-[(4,4-difluoropyrrolidin-3-yl)methyl]-6-methyl-4-[8-(trifluoromethyl)-5-quinolyl]morpholine-2-carboxamide]
130	C[C@@H]1CN(c2ccc(C(F)(F)F)c3ncccc23)C[C@H](C(=O)NC[C@@H]2CC(F)(F)CN2)O1 [Example 30]
9	C[C@@H]1CN(c2ccc(C(F)(F)F)c3ncccc23)C[C@H](C(=O)NC2C3CCC2CNC3)O1 (stereo partly drawn) [Example 31, (2R,6R)-N-(3-azabicyclo[3.2.1]octan-8-yl)-6-methyl-4-[8-(trifluoromethyl)-5-quinolyl]morpholine-2-carboxamide]
20	C[C@@H]1CN(c2ccc(C(F)(F)F)c3ncccc23)C[C@H](C(=O)N2CCC3(CCNCC3)CC2)O1 [Example 32, 3,9-diazaspiro[5.5]undecan-3-yl-[(2R,6R)-6-methyl-4-[8-(trifluoromethyl)-5-quinolyl]morpholin-2-yl]methanone]
25	C[C@@H]1CN(c2ccc(C(F)(F)F)c3ncccc23)C[C@H](C(=O)N2CCC3(CCNC3)C2)O1 (some centres unmarked) [Example 36]
6	C[C@@H]1CN(c2ccc(C(F)(F)F)c3ncccc23)C[C@H](C(=O)NC2CC3CNCC(C3)C2)O1 (stereo partly drawn) [Example 37, (2R,6R)-N-(3-azabicyclo[3.3.1]nonan-7-yl)-6-methyl-4-[8-(trifluoromethyl)-5-quinolyl]morpholine-2-carboxamide]
< 3	C[C@@H]1CN(c2ccc(I)c3ncccc23)C[C@H](C(=O)NC2CCN(C)CC2)O1 [Example 38, (2R,6R)-4-(8-iodo-5-quinolyl)-6-methyl-N-(1-methyl-4-piperidyl)morpholine-2-carboxamide]
< 3	C[C@@H]1CN(c2ccc(I)c3ncccc23)C[C@H](C(=O)NCC2CN(C)CCO2)O1 (stereo partly drawn) [Example 39, (2R,6R)-4-(8-iodo-5-quinolyl)-6-methyl-N-[(4-methylmorpholin-2-yl)methyl]morpholine-2-carboxamide]
< 3	C[C@@H]1CN(c2ccc(I)c3ncccc23)C[C@H](C(=O)NC2CNCC2F)O1 (stereo partly drawn) [Example 40, cis-(2R,6R)-N-[4-fluoropyrrolidin-3-yl]-4-(8-iodo-5-quinolyl)-6-methyl-morpholine-2-carboxamide]
< 3	C[C@@H]1CN(c2ccc(Br)c3ncccc23)C[C@H](C(=O)NC2CNCC2F)O1 (stereo partly drawn) [Example 41, cis-(2R,6R)-4-(8-bromo-5-quinolyl)-N-[4-fluoropyrrolidin-3-yl]-6-methyl-morpholine-2-carboxamide]
< 3	C[C@@H]1CN(c2ccc(Br)c3ncccc23)C[C@H](C(=O)NC2CCN(C)CC2)O1 [Example 42, (2R,6R)-4-(8-bromo-5-quinolyl)-6-methyl-N-(1-methyl-4-piperidyl)morpholine-2-carboxamide]
< 3	C#Cc1ccc(N2C[C@@H](C)O[C@@H](C(=O)NC3CCN(C)CC3)C2)c2cccnc12 [Example 43, (2R,6R)-4-(8-ethynyl-5-quinolyl)-6-methyl-N-(1-methyl-4-piperidyl)morpholine-2-carboxamide]
43	C[C@@H]1CN(c2ccc(C(F)(F)F)c3ncccc23)C[C@H](C(=O)NC2C[C@H]3C[C@@H]2CN3)O1 (some centres unmarked) [Example 44]
< 3	C[C@@H]1CN(c2ccc(C(F)(F)F)c3ncccc23)C[C@H](C(=O)NC2C3CCCC2CNC3)O1 (stereo partly drawn) [Example 45, (2R,6R)-N-(3-azabicyclo[3.3.1]nonan-9-yl)-6-methyl-4-[8-(trifluoromethyl)-5-quinolyl]morpholine-2-carboxamide]

Compound	IC50 [nM]
C[C@@H]1CN(c2ccc([N+](=O)[O-])c3ncccc23)C[C@H](C(=O)NCC2CN(C)CCO2)O1 (stereo partly drawn) [Example 18, (2R,6R)-6-methyl-N-[(4-methylmorpholin-2-yl)methyl]-4-(8-nitro-5-quinolyl)morpholine-2-carboxamide]	< 3
C[C@@H]1CN(c2ccc([N+](=O)[O-])c3ncccc23)C[C@H](C(=O)N[C@@H]2CNC[C@@H]2F)O1 [Example 19, cis-(2R,6R)-N-[41-fluoropyrrolidin-3-yl]-6-methyl-4-(8-nitro-5-quinolyl)morpholine-2-carboxamide]	< 3
C[C@@H]1CN(c2ccc([N+](=O)[O-])c3ncccc23)C[C@H](C(=O)NC2CCN(C)CC2)O1 [Example 20, (2R,6R)-6-methyl-N-(1-methyl-4-piperidyl)-4-(8-nitro-5-quinolyl)morpholine-2-carboxamide]	< 3
C[C@@H]1CN(c2ccc(C(F)(F)F)c3ncccc23)C[C@H](C(=O)NC2CC3COCC(C2)N3)O1 (stereo partly drawn) [Example 33, (2R,6R)-6-methyl-N-(3-oxa-9-azabicyclo[3.3.1]nonan-7-yl)-4-[8-(trifluoromethyl)-5-quinolyl]morpholine-2-carboxamide]	< 3
